Here are results for 28 compounds from ChEMBL document CHEMBL1155535, “Synthesis and biological evaluation of tricyclic anilinopyrimidines as IKKbeta inhibitors” (Bioorg Med Chem Lett, 2010).

For orientation: IC50 means the midpoint of a concentration-inhibition curve. As usually defined, the Papp A→B is how fast a substance crosses the layer from the apical side. As usually defined, the solubility is the concentration that dissolves in the medium under given conditions. What is called Papp B→A is how fast a substance crosses the layer from the basolateral side. As a reminder, the Papp is a coefficient for how fast a substance crosses the barrier. Low values mean slow passage, high ones fast passage.

Converted amounts (≈) assume the structure as drawn.

Data set [1] concerns the target T1, Inhibitor of nuclear factor kappa-B kinase subunit beta (Homo sapiens, UniProt O14920).
T1 sequence (O14920 whole entry): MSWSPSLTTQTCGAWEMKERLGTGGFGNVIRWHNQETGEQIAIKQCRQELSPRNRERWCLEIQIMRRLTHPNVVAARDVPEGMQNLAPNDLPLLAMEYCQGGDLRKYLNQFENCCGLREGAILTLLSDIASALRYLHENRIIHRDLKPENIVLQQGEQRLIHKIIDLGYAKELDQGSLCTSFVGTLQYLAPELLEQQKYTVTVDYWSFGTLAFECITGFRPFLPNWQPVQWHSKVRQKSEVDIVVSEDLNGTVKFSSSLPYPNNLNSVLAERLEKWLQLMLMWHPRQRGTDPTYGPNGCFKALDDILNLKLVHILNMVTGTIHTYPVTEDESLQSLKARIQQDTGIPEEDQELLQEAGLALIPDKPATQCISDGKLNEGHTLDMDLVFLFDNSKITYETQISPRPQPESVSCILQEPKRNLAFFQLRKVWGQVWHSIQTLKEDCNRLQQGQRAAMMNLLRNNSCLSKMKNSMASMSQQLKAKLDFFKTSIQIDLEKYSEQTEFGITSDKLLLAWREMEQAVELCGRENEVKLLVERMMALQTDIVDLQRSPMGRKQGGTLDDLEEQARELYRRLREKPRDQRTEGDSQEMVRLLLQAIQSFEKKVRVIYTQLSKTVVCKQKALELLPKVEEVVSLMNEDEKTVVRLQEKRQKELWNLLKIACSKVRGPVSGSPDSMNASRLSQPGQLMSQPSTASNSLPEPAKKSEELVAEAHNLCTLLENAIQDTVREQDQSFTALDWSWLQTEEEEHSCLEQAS
As to the kind of experiment: Inhibition of IKK-beta expressed in human HeLa cells transfected with pNFkappaB-luciferase assessed inhibition of TNF-alpha-induced NF-kappaB expression by luciferase reporter gene assay. The class given is cell-based. On the technique in general: A reporter such as luciferase makes a cellular process visible.

Data set [2] concerns the target T1, Inhibitor of nuclear factor kappa-B kinase subunit beta. As to the kind of experiment: Inhibition of FLAG-tagged IKK-beta after 30 mins.
In data set [3] the test system is LoVo. As to the kind of experiment: Cytotoxicity against human LoVo cells assessed as growth inhibition. The class given is functional, cell-based.
A short description of data set [4]: Apparent permeability from apical to basolateral side in human Caco-2 cells.
Data set [5] can be described thus: Aqueous solubility in at pH 7.4.
A short description of data set [6]: Apparent permeability from basolateral to apical side in human Caco-2 cells.
Data set [7] is described as follows: Membrane permeability by PAMPA assay. For orientation: In PAMPA a lipid-coated filter parts donor from acceptor wells.

Regarding `NS(=O)(=O)c1ccc(Nc2ncc3c(n2)-c2ccc(NC(=O)C4CCCC4)cc2CC3)cc1`, the IC50 in data set [1] was found to be 1570 nM; in data set [2], 2200 nM; in data set [3], 830 nM.

With `O=S(=O)(NCCO)c1ccc(Nc2ncc3c(n2)-c2ccsc2CC3)cc1`, the concentration for half-maximal inhibition (IC50) in data set [1] amounted to 1960 nM; in data set [2], 1220 nM; in data set [3], 800 nM.

As to `O=S(=O)(NCCO)c1ccc(Nc2nccc(-c3ccsc3)n2)cc1`, the values for the IC50 in data set [1], in data set [2] and in data set [3] were 3390 nM, 130 nM and 4110 nM, respectively.

Take `NS(=O)(=O)c1ccc(Nc2ncc3c(n2)-c2ccsc2CC3)cc1`: the Papp A→B in data set [4] was 34 ×10⁻⁶ cm/s. Also, the IC50 was determined as 800 nM in data set [1], 790 nM in data set [2] and 330 nM in data set [3]. In data set [5], this compound returned a solubility of less than 1 µg/mL. Also, the Papp B→A in data set [6] amounted to 20.7 ×10⁻⁶ cm/s. The compound also came in with a Papp in data set [7] of 0.38 ×10⁻⁶ cm/s.

In the case of `Cc1ccc(-c2ccnc(Nc3ccc(S(N)(=O)=O)cc3)n2)s1`, the IC50 stood at 1710 nM in data set [1], 19 nM in data set [2] and 1660 nM in data set [3]. For the same compound, the concentration in solution in data set [5] (solubility) came to 3 µg/mL (≈ 8.66 µM).

For the compound `NS(=O)(=O)c1ccc(Nc2nccc(-c3ccc(NC(=O)Cc4cccs4)cc3)n2)cc1`, the half-inhibitory concentration (IC50) turned out to be 6910 nM in data set [1], 20 nM in data set [2] and 250 nM in data set [3]. The compound also had a solubility in data set [5] of less than 1 µg/mL. The Papp in data set [7] stood at 0.3 ×10⁻⁶ cm/s.

Turning to `CC(C)CC(=O)Nc1ccc2c(c1)CCc1cnc(Nc3ccc(S(N)(=O)=O)cc3)nc1-2`, the IC50 in data set [1] was 6400 nM; in data set [2], 1940 nM; in data set [3], 380 nM.

`COc1ccc(-c2ccnc(Nc3ccc(S(N)(=O)=O)cc3)n2)cc1`: the concentration for half-maximal inhibition (IC50) in data set [1] is 640 nM; in data set [2], 40 nM; in data set [3], 2550 nM. Moreover, in data set [5], the solubility worked out at 2.3 µg/mL (≈ 6.45 µM). Also, in data set [7], the apparent permeability (Papp) is less than 0.01 ×10⁻⁶ cm/s.

As for `COC(=O)CC(=O)Nc1ccc2c(c1)CCc1cnc(Nc3ccc(S(N)(=O)=O)cc3)nc1-2`, the IC50 amounted to 280 nM in data set [2] and 620 nM in data set [3].

For `NS(=O)(=O)c1ccc(Nc2nccc(-c3ccsc3)n2)cc1`, the IC50 came out at 1700 nM in data set [1], 180 nM in data set [2] and 2620 nM in data set [3].

For `CN(C)CCCNS(=O)(=O)c1ccc(Nc2nccc(-c3ccsc3)n2)cc1`, the IC50 stood at 1060 nM in data set [1], 170 nM in data set [2] and 3380 nM in data set [3].

For the compound `NS(=O)(=O)c1ccc(Nc2nccc(-c3ccc(NC(=O)Cc4ccccc4)cc3)n2)cc1`, the half-maximal inhibitory concentration (IC50) is 4470 nM in data set [1], 50 nM in data set [2] and 180 nM in data set [3]. Moreover, in data set [5], the solubility came to 1 µg/mL (≈ 2.18 µM). Besides, in data set [7], the apparent permeability (Papp) is less than 0.01 ×10⁻⁶ cm/s.

As for `NS(=O)(=O)c1ccc(Nc2nccc(-c3ccccc3)n2)cc1`, the IC50 amounted to 20200 nM in data set [2] and 3280 nM in data set [3]. Besides, the solubility in data set [5] was found to be 1 µg/mL (≈ 3.06 µM). The same compound showed a Papp in data set [7] of 2.26 ×10⁻⁶ cm/s.

In the case of `NS(=O)(=O)c1ccc(Nc2ncc3c(n2)-c2ccc(NC(=O)Cc4cccs4)cc2CC3)cc1`, the IC50 worked out at 830 nM in data set [1], 510 nM in data set [2] and 290 nM in data set [3]. Also, the concentration in solution in data set [5] (solubility) was 6 µg/mL (≈ 12.2 µM). Besides, the Papp in data set [7] is 0.51 ×10⁻⁶ cm/s.

For the compound `CN(C)CCNS(=O)(=O)c1ccc(Nc2ncc3c(n2)-c2ccsc2CC3)cc1`, the Papp A→B in data set [4] was less than 1 ×10⁻⁶ cm/s. The results for the IC50 in data set [1], in data set [2] and in data set [3] were 510 nM, 770 nM and 680 nM, respectively. Besides, the solubility in data set [5] was determined as 36 µg/mL (≈ 83.8 µM). For the same compound, the Papp B→A in data set [6] is 3.08 ×10⁻⁶ cm/s. The Papp in data set [7] turned out to be 1.54 ×10⁻⁶ cm/s.

In the case of `NS(=O)(=O)c1ccc(Nc2ncc3c(n2)-c2ccc(NC(=O)Cc4ccccc4)cc2CC3)cc1`, the half-maximal inhibitory concentration (IC50) in data set [1] was 1790 nM; in data set [2], 2380 nM; in data set [3], 190 nM. This compound returned a solubility in data set [5] of 9 µg/mL (≈ 18.5 µM). In addition, the Papp in data set [7] was 3.37 ×10⁻⁶ cm/s.

Consider `COc1ccc(CC(=O)Nc2ccc3c(c2)CCc2cnc(Nc4ccc(S(N)(=O)=O)cc4)nc2-3)cc1`, for which the IC50 stood at 1600 nM in data set [1], 1830 nM in data set [2] and 730 nM in data set [3].

As to `NS(=O)(=O)c1ccc(Nc2ncc3c(n2)-c2ccc(NC(=O)Cc4ccsc4)cc2CC3)cc1`, the values for the IC50 in data set [1], in data set [2] and in data set [3] were 970 nM, 310 nM and 490 nM, respectively.

For `CC(C)C(=O)Nc1ccc2c(c1)CCc1cnc(Nc3ccc(S(N)(=O)=O)cc3)nc1-2`, the half-maximal inhibitory concentration (IC50) turned out to be 1460 nM in data set [1], 1110 nM in data set [2] and 660 nM in data set [3].

As to `CN(C)CCNS(=O)(=O)c1ccc(Nc2nccc(-c3ccsc3)n2)cc1`, the apparent permeability from apical to basolateral (Papp A→B) in data set [4] was less than 1 ×10⁻⁶ cm/s. For the same compound, the half-inhibitory concentration (IC50) in data set [1] is 770 nM; in data set [2], 230 nM; in data set [3] it was 2810 nM. This compound also came in with a solubility in data set [5] of more than 100 µg/mL. Further, the Papp B→A in data set [6] was 13.2 ×10⁻⁶ cm/s. In addition, in data set [7], the Papp was found to be 2.4 ×10⁻⁶ cm/s.

`CN(C)CCCNS(=O)(=O)c1ccc(Nc2ncc3c(n2)-c2ccsc2CC3)cc1`: the IC50 came to 620 nM in data set [1], 780 nM in data set [2] and 1100 nM in data set [3].

As for `CC(C)=CC(=O)Nc1ccc2c(c1)CCc1cnc(Nc3ccc(S(N)(=O)=O)cc3)nc1-2`, the IC50 turned out to be 8250 nM in data set [1], 1590 nM in data set [2] and 560 nM in data set [3].

With `NS(=O)(=O)c1ccc(Nc2ncc3c(n2)-c2ccc(NC(=O)c4ccco4)cc2CC3)cc1`, the IC50 in data set [2] came to 2230 nM; in data set [3], 1060 nM.

Consider `CC(C)(C)CC(=O)Nc1ccc(-c2ccnc(Nc3ccc(S(N)(=O)=O)cc3)n2)cc1`, for which the results for the IC50 in data set [1], in data set [2] and in data set [3] were 2460 nM, 10 nM and 790 nM, respectively. Further, the solubility in data set [5] is less than 1 µg/mL. Further, the apparent permeability coefficient (Papp) in data set [7] worked out at 0.6 ×10⁻⁶ cm/s.

Turning to `NS(=O)(=O)c1ccc(Nc2ncc3c(n2)-c2ccccc2CCC3)cc1`, the results for the IC50 in data set [1] and in data set [3] were 4060 nM and 4180 nM, respectively.

`COc1ccc2c(c1)CCc1cnc(Nc3ccc(S(N)(=O)=O)cc3)nc1-2`: the IC50 in data set [1] amounted to 420 nM; in data set [2], 550 nM; in data set [3] it was 750 nM. Further, the solubility in data set [5] was less than 1 µg/mL. The apparent permeability coefficient (Papp) in data set [7] came out at 1.8 ×10⁻⁶ cm/s.

For the compound `NS(=O)(=O)c1ccc(Nc2ncc3c(n2)-c2ccccc2CC3)cc1`, the values for the 50% inhibitory concentration (IC50) in data set [1], in data set [2] and in data set [3] were 1430 nM, 1830 nM and 1050 nM, respectively. In data set [5], the concentration in solution (solubility) was 7 µg/mL (≈ 19.9 µM). The compound further came in with an apparent permeability coefficient (Papp) in data set [7] of 2.92 ×10⁻⁶ cm/s.

For the compound `CC(C)(C)CC(=O)Nc1ccc2c(c1)CCc1cnc(Nc3ccc(S(N)(=O)=O)cc3)nc1-2`, the IC50 turned out to be 1360 nM in data set [1], 820 nM in data set [2] and 370 nM in data set [3]. In addition, the solubility in data set [5] was determined as 9 µg/mL (≈ 19.3 µM). In data set [7], this compound gave a Papp of 2.3 ×10⁻⁶ cm/s.
